According to patent US4032641A, “Nicotinoyl carnitine derivatives” (Tanabe Seiyaku Co., Ltd., priority 1976, dated 1977):
Structures can show the parent of a compound that is named as a salt.

How the values were obtained:
Blood-free fatty acids = experiment: Experiment I: blood free fatty acid after oral administration to fasted rats; type: in vivo, rat; settings: 1 mmol/kg, mean
Description: (§1) Test compounds are administered orally to groups of 5 rats (body weight: about 290 g) which fasted overnight. Blood samples were collected from the tail vein at intervals. Blood free fatty acid, serum-triglyceride and serum-cholesterol were determined, respectively.

Serum triglyceride = experiment: Experiment I: serum-triglyceride after oral administration to fasted rats; type: in vivo, rat; settings: 1 mmol/kg, rats about 290 g, mean
Description: as §1

Serum-cholesterol = experiment: Experiment I: serum-cholesterol after oral administration to fasted rats; type: in vivo, rat; settings: 1 mmol/kg, mean
Description: as §1

[1] = Experiment III: acute toxicity, oral, SD-strain male rats (Van der Waerden's Method); settings: rat, in vivo
Description: (§2) Test compounds were administered orally to ddY male mice or SD-strain male rats. Seventy-two hours after the administration, 50% lethal dose of the test compounds were estimated in accordance with Van der Waerden's Method.

[2] = Experiment III: acute toxicity, oral, ddY male mice (Van der Waerden's Method); settings: mouse, in vivo, ddY-strain male mice
Description: as §2

Serum-triglyceride = experiment: Experiment II: serum-triglyceride after oral administration to fasted rats; type: in vivo, rat; settings: 1 mmol/kg, rats about 170 g, mean ± standard error
Description: Test compounds were administered orally to groups of 5 rats (body weight: about 170 g) which fasted overnight. Blood samples were collected from the tail vain at intervals, and serum-triglyceride was determined.

[3] = test system: cholesterol and triglyceride levels in plasma; settings: literature; cited from earlier work
[4] = use as hypolipidemic agent; known; cited from earlier work
[5] = 0 hrs after oral administration
[6] = 2 hrs after oral administration
[7] = 6 hrs after oral administration
[8] = 10 hrs after oral administration
[9] = 12 hrs after oral administration

| Compound | Blood-free fatty acids (Blood-free fatty acids; [5]) | Blood-free fatty acids (Blood-free fatty acids; [6]) | Blood-free fatty acids (Blood-free fatty acids; [7]) | Blood-free fatty acids (Blood-free fatty acids; [8]) | Serum triglyceride (Serum triglyceride; [7]) | Serum triglyceride (Serum triglyceride; [8]) | Serum-cholesterol (Serum-cholesterol; [7]) | Serum-cholesterol (Serum-cholesterol; [8]) | LD50 at 72 h [1] | LD50 at 72 h [2] | Serum-triglyceride (Serum-triglyceride; [7]) | Serum-triglyceride (Serum-triglyceride; [9]) | cholesterol and triglyceride levels in plasma [3] | side effects [4] |
| --- | --- | --- | --- | --- | --- | --- | --- | --- | --- | --- | --- | --- | --- | --- |
| CCOC(=O)CC(C[N+](C)(C)C)OC(=O)c1cccnc1 (stereo not shown) [A, Nicotinoyl carnitine ethyl ester nitrate . HNO3] | 52 μ moles/dl | 27 μ moles/dl | 29 μ moles/dl | 65 μ moles/dl | 12 mg/dL | 16 mg/dL | 55 mg/dL | 50 mg/dL |  |  |  |  |  |  |
| CCOC(=O)CC(C[N+](C)(C)C)OC(=O)c1cccnc1 (stereo not shown) [B, Nicotinoyl carnitine ethyl ester chloride. H2 O] |  |  |  |  |  |  |  |  | 6900 mg/kg | 5900 mg/kg | 13 ± 5 mg/dL | 13 ± 4 mg/dL |  |  |
| C[N+](C)(C)CC(CC(=O)OCc1ccccc1)OC(=O)c1cccnc1 (stereo not shown) [C, Nicotinoyl carnitine benzyl ester chloride] |  |  |  |  |  |  |  |  |  |  | 10 ± 1 mg/dL | 23 ± 3 mg/dL |  |  |
| C[N+](C)(C)CC(CC(N)=O)OC(=O)c1cccnc1 (stereo not shown) [D, Nicotinoyl carnitine amide chloride . HCl] |  |  |  |  |  |  |  |  | > 7000 mg/kg | > 7200 mg/kg |  |  |  |  |
| O=C(O)c1cccnc1 [Nicotinic acid, nicotinic acid, reference compound] | 38 μ moles/dl | 22 μ moles/dl | 60 μ moles/dl | 66 μ moles/dl | 22 mg/dL | 27 mg/dL | 74 mg/dL | 70 mg/dL |  |  | 28 ± 7 mg/dL | 34 ± 5 mg/dL | can be decreased | undesirable side effects such as facial skin flush and itching |
